Measured values from patent US9326971B2, “4-methylpyrazole formulations for inhibiting ethanol intolerance” (Raptor Pharmaceuticals Inc., priority 2004, dated 2016).
Where two headings read alike, the source gives them in different places.

How the values were obtained:
ethanol elimination rate [1] = details: human subjects, cited from earlier work
[2] = tested on: serum acetaldehyde concentration; experiment: Blinded, intra-subject controlled single dose study: serum acetaldehyde after oral 4-MP and ethanol in ethanol-intolerant subjects genotyped for ALDH2 and ADH2; format: in vivo, human
Procedure: A blinded, intra-subject controlled, single dose, dose escalation study of 4-MP for mitigation of acetaldehyde related toxicity in subjects with symptoms of inborn altered ethanol metabolism with concomitant ethanol exposure was undertaken.
Twenty-four subjects (n=24) were randomly selected and orally administered 1 mg/kg, 3 mg/kg, or 5 mg/kg of 4-MP, followed 30 minutes later by an oral dose of 20% ethanol ([…]).
Using the same protocol, wherein 4-MP was replaced with placebo, each of the twenty-four randomly selected subjects served as its own control.
The twenty-four randomly selected subjects were then subjected to blood sampling, and the sampled blood analyzed for acetaldehyde levels at select time points following ethanol consumption.
For acetaldehyde analysis, blood samples were prepared by dilution with an internal standard (acetaldehyde-d4), with derivatization of acetaldehyde with dinitrophenyl hydrazine in hydrochloric acid, liquid-liquid portioning and solvent exchange. The derivatization forms an acetaldehyde-dinitrophenyl hydrazine (DNPH) derivative which dramatically increases the boiling point of the molecule and thus its relative stability compared to the acetaldehyde itself (Nagy et al., Rapid Communications in Mass Spectrometry 2004, 18, 2473-2478). The derivatized analytes were separated using a Jones Chromatography (Grace-Vydac), 50 mm×2.1 mm, 3 μm column held in an oven set at 28° C. Two mobile phases were used in a gradient consisting of 30:70 acetonitrile:water versus 90:10 acetonitrile:water with 0.1% formic acid. The derivatized analyte was detected on a High Performance Liquid Chromatograph equipped with a Mass Spectrometer (HPLC/MS/MS). Quantitation was performed using a linear regression curve fit of impurities standards with 1/x weighting, prepared from dilutions of acetaldehyde in water. Samples and standards were injected at 2 μL.
All […] subjects were then genotyped for ALDH2 and ADH2 at the Alcohol Research Center at Indiana University using (i) genomic DNA isolation and (ii) TaqMan assay for allelic discrimination. • i. Genomic DNA isolation: DNA was first isolated using the “HotSHOT” method for isolating PCR quality genomic DNA (Truett et al., Biotechniques 2000, 29(1), 52-54). Briefly, blood blotted on filter paper (3 mm circle) was placed in the well of a 96-well plate and mixed with 75 μL 25 mM NaOH/0.3 mM EDTA solution and heated to 95° C. for 40 minutes, followed by neutralization with 75 μL 40 mM Tris-HCl (pH 5) solution. 1-5 microliters were used for each PCR. • ii. TaqMan Assay for Allelic Discrimination: The allelic discrimination assay used a multiplexed (more than one primer/probe pair per reaction), end-point (data is collected at the end of the PCR process) assay. Each assay mix contained two different TaqMan probes (Applied BioSystems, Foster City, Calif.), labeled with VIC or FAM fluorescent reporter dye, which bound preferentially to one of the alleles. The genotype of each sample was determined by the fluorescence levels of the reporter dyes and was clustered on a graph with other samples of the same genotype. Each reaction contained 5 μL of 2×TaqMan Universal PCR Masternix, No AmpErase UNG, 3.75 μL of water, 0.25 μL of 40× Assay Mix, and 1 μL of DNA sample. Eight or eleven controls were included on each 96-well plate: two no template controls, two or three heterozygous samples, and two or three of each of the homozygous samples. Thermocycling was carried out in MJ Research PTC-200 thermocyclers. The PCR products were then analyzed in an ABI PRISM® 7300 Sequence Detection System (SDS) instrument. SDS Software 1.3.1 converted the raw data to pure dye components and plotted the results of the allelic discrimination on a scatter plot of Allele X versus Allele Y (e.g., ADH2*1 versus ADH2*2); each genotype appeared on the graph as a cluster of points. […]

ethanol elimination rate [3] = experiment: Percent reduction in ethanol elimination rate versus dose of 4-MP in human subjects (literature data, FIG. 2); format: in vivo; details: doses of 4 mg/kg 4-MP and less; from linear least squares fit of literature data (FIG. 2)
Source text: As used herein, “ethanol elimination rate” refers to the reduction in ethanol concentration in a subject's bloodstream over time after the subject has ingested ethanol. Typically, an ethanol elimination rate can be expressed in terms of millimole ethanol/kilogram subject body mass/hour. Techniques for blood sampling and analysis of ethanol levels in blood are well known to those of skill in the art. See, e.g., Inoue et al., Alcoholism: Clinical and Experimental Research 1984, 8, 319-322, incorporated herein by reference in its entirety. A “percent change in ethanol elimination rate,” can be calculated as follows:
[formula] where EtOH represents ethanol, and a number for a percent change in ethanol elimination that is less than 100 is a reduction in the percent change in EtOH elimination. Blood ethanol levels can also be calculated, for example, based on algorithms utilizing the amount of ethanol consumed by a subject, the subject's body mass, and time period since the consumption of ethanol, or, as another example, blood ethanol levels can be extrapolated from analysis of a subject's breath, and the like, as known to those of skill in the art. […]

[4] = all subjects with reduced or absent ALDH2 activity, 1, 3 or 5 mg/kg 4-MP
[5] = reduced ALDH2 activity, ADH2*1/ADH2*1 or ADH2*1/ADH2*2, 1 mg/kg 4-MP
[6] = reduced or absent ALDH2 activity, ADH2*2/ADH2*2, 1 mg/kg 4-MP

Cc1cn[nH]c1 [4-MP, 4-methylpyrazole]
reduction in EtOH elimination (ethanol elimination rate [1]; 6 mg 4-MP per kilogram body weight, Lindros et al. 1981): 20% | reduction in EtOH elimination (ethanol elimination rate [1]; 8.5 mg 4-MP per kilogram body weight, Inoue et al. 1985): 12% | reduction in EtOH elimination (ethanol elimination rate [1]; 10 mg 4-MP per kilogram body weight, Inoue et al. 1984): 20% | reduction in EtOH elimination (ethanol elimination rate [1]; 12.5 mg 4-MP per kilogram body weight, Sarkola et al. 2002): 34% | Cmax mean and AUC0-8H mean of acetaldehyde concentration in the blood, versus absence of 4-MP (in words) [2, 4]: not significantly reduced | peak mean acetaldehyde concentration in the blood due to drinking ethanol (FIG. 5), versus placebo [2, 4]: not reduced | Cmax mean and AUC0-8H mean of acetaldehyde concentration in the blood, versus absence of 4-MP (in words) [2, 5]: significantly reduced | peak mean acetaldehyde concentration in the blood due to drinking ethanol (FIG. 3), versus placebo [2, 5]: can be reduced | Cmax mean and AUC0-8H mean of acetaldehyde concentration in the blood, versus absence of 4-MP (in words) [2, 6]: not significantly reduced | peak mean acetaldehyde concentration in the blood due to drinking ethanol (FIG. 4), versus placebo [2, 6]: not reduced | reduction in ethanol elimination (ethanol elimination rate [3]): less than 10%
